Experimental data published in US9060987B2, “Methods for treating gout flares” (CymaBay Therapeutics, Inc., priority 2011, dated 2015).

How the values were obtained:
[1] = test system: gout patients with hyperuricemia; assay: Open-label trial of arhalofenate in combination with febuxostat vs febuxostat alone: sUA reduction and flare prevention; assay type: in vivo, human
Description: Study Design: This was an open-label study to determine the sUA reduction and flare prevention with arhalofenate in combination with febuxostat and compared that with febuxostat alone in gout patients (per criteria of the American Rheumatism Association) with hyperuricemia when arhalofenate administered at 400 mg once daily orally for 2 weeks (Weeks 2-3) and then increased to 600 mg once daily orally for an additional 2 weeks (Weeks 4-5) in addition to 80 mg febuxostat once daily orally (Weeks 1-5). Patients with a recent history of an acute gout flare must have been symptom free for at least 1 week prior to screening.
All patients who met the screening criteria started a 2-week Run-in/Stabilization Phase at the same time as out-patient basis. During this phase, patients on existing urate lowering therapy were asked to discontinue their current therapy for the duration of the study. At the same time, patients also started colchicine 0.6 mg once daily as prophylaxis to prevent potential gout flares. Upon completing the Run-in/Stabilization Phase, patients were reassessed at Day −2 (Visit 2) to confirm the final eligibility for the Treatment Phase. The sUA at this visit must have been ≧8.0 mg/dL and ≦10 mg/dL to qualify for the Treatment Phase. In addition, all safety lab values must have met the eligibility criteria at this visit. Patients successfully meeting the eligibility criteria entered the study site for an in-clinic stay for a total of 37 consecutive days.
The Treatment Phase began on Day 1 and continued for 5 weeks until Day 35. The Treatment Phase consisted of 3 sequential drug dosing periods:
80 mg febuxostat orally once daily from Days 1 through 7 (Febuxostat Period).
80 mg febuxostat plus 400 mg arhalofenate orally once daily from Days 8 through 21 (Febuxostat plus 400 mg arhalofenate Period).
80 mg febuxostat plus 600 mg arhalofenate orally once daily from Days 22 through 35 (Febuxostat plus 600 mg arhalofenate Period).
In addition, all patients continued to receive 0.6 mg colchicine daily for gout flare prophylaxis.
Efficacy of febuxostat plus arhalofenate combination treatment was assessed by the proportion of patients achieving a sUA<6 mg/dL, <5 mg/dL, <4 mg/dL, and <3 mg/dL at Day 22 and Day 36. In addition, absolute and percent changes in sUA at Day 22 and Day 36 from baseline (Day 1) were also evaluated. Gout flares were captured as special interest event in this study. The incidence of gout flares, severity (as assessed either mild, moderate, or severe by the Principal Investigator), and duration (days) were compared between treatment periods.

gout patients = details: monotherapy at 40, 80, 120, 160 and 240 mg/day; cited from earlier work
healthy adult subjects = assay: Phase 1 multiple-dose study, serum uric acid after once daily oral dosing for 10 days; assay type: in vivo, human; details: all dose levels tested, FIG. 3 and Table 1
Description: Methods used in relation to FIG. 3 showing reduction in serum uric acid in subjects over time following once daily dosing with arhalofenate were as follows.
A single centre Phase 1, placebo- and positive-controlled, double-blind, randomized, dose escalation study was conducted to evaluate the multiple-dose pharmacokinetics (PK) of (−)-halofenate administered as a daily dose orally for 10 days, at the protocol-specified doses in healthy adult subjects. A total of 119 subjects completed study treatment according to protocol: 6 subjects received (−)-halofenate 100 mg/day for 10 days; 6 subjects received (−)-halofenate 200 mg/day for 10 days; 9 subjects received (−)-halofenate 400 mg/day for 10 days; 20 subjects received (−)-halofenate 600 mg/day for 10 days; 10 subjects received (−)-halofenate 600 mg Enteric Coated (EC)/day for 10 days; 9 subjects received (−)-halofenate 800 mg EC/day for 10 days; 10 subjects received (−)-halofenate 1000 mg EC/day for 10 days; 24 subjects received placebo treatment daily for 10 days; and 25 subjects received naproxen 500 mg b.i.d. monotherapy for 7 days. In this study, serum uric acid was measured at screening and on Days 1, 3, 5, 7, 9, 14 and 21.

[2] = test system: gout patients with hyperuricemia; assay: Randomized, double-blind, placebo-controlled 4-week monotherapy trial: sUA reduction and flare prevention; assay type: in vivo, human; details: for Flares considered moderate in severity by the investigator / Patients who reported flare during the Treatment Phase / Patients with flare that required medication (additional colchicine and/or NSAIDs) / Mean duration of Flares Requiring Treatment / Mean duration of Total flares / Mean sUA absolute change from baseline (Day 1) / Mean sUA percent change from baseline (Day 1): 4 weeks; for Mean sUA absolute change from baseline (Day 1) / Mean sUA percent change from baseline (Day 1): PP population; for Mean sUA percent change from baseline (Day 1): colchicine 0.6 mg background
Description: Study Design: This was a randomized, double-blind, placebo-controlled study of 400 mg and 600 mg arhalofenate administered daily for 4 weeks as monotherapy in patients with gout (per criteria of the American Rheumatism Association) with hyperuricemia. Patients using urate lowering therapy (ULT) must have been willing to discontinue treatment for the duration of the study. Patients with a recent history of an acute gout flare must have been symptom free for at least 1 week prior to screening. Upon successful completion of screening, patients entered into a minimum 3-week Run-in/Stabilization Phase. During this phase, patients on existing ULT were asked to temporarily discontinue their current therapy. Patients also started colchicine 0.6 mg once daily until the final study visit as prophylaxis to prevent potential gout flares. Patient who met final eligibility criteria were randomized (1:1:1) into the Treatment Phase to receive Placebo, arhalofenate 400 mg, or arhalofenate 600 mg. Each randomized patient took double-blind study medication daily for a period of four weeks beginning at Day 1 (Visit 3). Patients returned to the study site after 2 weeks at Visit 4 and then weekly at Visits 5 and 6 (Weeks 3 and 4). A Follow-up Visit (Visit 7) took place 2 weeks after the last dose of study medication. […] Patients with a recent history of an acute gout flare must have been symptom free for at least 1 week prior to both screening and randomization. Criteria for Evaluation: The primary efficacy analysis compared the percentage change in sUA from baseline to end of treatment between the treatment groups. In addition, gout flares were captured as special interest event and the incidence of gout flares (all flares and flares that required treatment), severity (as assessed either mild, moderate, or severe by the Principal Investigator), and duration (days) were compared between treatment groups.

murine 3T3-L1 adipocytes = assay: Suppression of uric-acid induced inflammation in vitro; assay type: cell-based; details: 50-150 μM, uric acid 5 or 15 mg/dL, 3 or 7 days
Description: Differentiated murine 3T3-L1 adipocytes are cultured in vitro in 24 well plates. To the culture medium (−)-halofenic acid is added at a final concentration of 50-150 μM prior to the addition of uric acid at 5 mg/dL or 15 mg/dL and the culture continued for 3 or 7 days. A parallel culture of cells is conducted in the presence of a vehicle such as dimethylsulfoxide (DMSO). At the end of the culture period media is removed, cells are isolated and messenger RNA prepared. The levels of secreted cytokines representing a panel of pro-inflammatory cytokines including but not restricted to monocyte chemoattractant protein-1 (MCP-1), tumor necrosis factor α (TNF-α), interleukin-1β, (IL-1β), interleukin-6 (IL-6) and interleukin-12 (Il-12) are determined in the media isolated from the cells using commercially available cytokine assay kits. The levels of gene expression for the mRNAs for a panel of pro-inflammatory cytokines including but not restricted to monocyte chemoattractant protein-1 (MCP-1), tumor necrosis factor α (TNF-α), interleukin-1β, (IL-1β), interleukin-6 (IL-6) and interleukin-12 (Il-12) are determined using real-time PCR. […] A similar study is also conducted in primary mouse macrophages and human umbilical vein endothelial cells.

[3] = Plasma concentration of (−)-halofenic acid during and after 30-day daily oral 400 mg arhalofenate; assay type: in vivo, human
Description: Methods used in relation to FIGS. 1-2 showing the pharmacokinetic profile of (−)-halofenic acid were as follows:
Plasma proteins in human plasma samples containing of (−)-halofenic acid, an internal standard (I.S.) and heparin as the anticoagulant were precipitated with acetonitrile. The samples were vortex mixed, centrifuged and an aliquot was analyzed by reversed phase high performance liquid chromatography using a Phenomenex Polar RP column maintained at 45° C. The mobile phase was nebulized using heated nitrogen in a Z-spray source/interface and the ionized compounds were detected using a tandem quadrupole mass spectrometer.
The plasma concentrations were rounded to the nearest one-tenth μg/mL before the calculations. Plasma samples with concentrations below the quantifiable limit of 1.0 μg/mL (BQL) were assigned values of zero.

[4] = Day 8, after one week of daily 80 mg febuxostat

Cc1nc(-c2ccc(OCC(C)C)c(C#N)c2)sc1C(=O)O [febuxostat, 2-(3-cyano-4-isobutoxyphenyl)-4-methyl-1,3-thiazole-5-carboxylic acid]
Patients who experienced gout flares ([1]; 1 week of febuxostat only period (80 mg), colchicine 0.6 mg background): 2 patients | Patients who reached sUA <4 mg/dL [1, 4]: 9% | Patients who reached sUA <5 mg/dL [1, 4]: 55% | Patients who reached sUA target of <6 mg/dL [1, 4]: 100% | Patients who reported flare, adjusted by duration of treatment ([1]; febuxostat only period, FIG. 6): 18.2 % patients/week | Mean duration of the gout flares ([1]; febuxostat only period, FIG. 7): 6.5 days

O=c1[nH]cnc2c(CN3C[C@H](CO)[C@@H](O)C3)c[nH]c12 [Ulodesine, 7-(((3R,4R)-3-hydroxy-4-(hydroxymethyl)pyrrolidin-1-yl)methyl)-3H-pyrrolo[3,2-d]pyrimidin-4(5H)-one]
Serum uric acid in gout patients (gout patients): rapidly and significantly reduced serum uric acid

CC(=O)NCCOC(=O)[C@H](Oc1cccc(C(F)(F)F)c1)c1ccc(Cl)cc1 [arhalofenate, (−)-(R)-(4-chloro-phenyl)-(3-trifluoromethyl-phenoxy)-acetic acid 2-acetylamino-ethyl ester]
Reduction in serum uric acid over time (healthy adult subjects): gradual reduction in serum uric acid over a period of time at all dose levels tested, and in a dose dependent manner | Flares considered moderate in severity by the investigator ([2]; 400 mg daily): 2 of 4 | Patients who reported flare during the Treatment Phase ([2]; 400 mg daily, FIG. 4): 19.0% | Patients with flare that required medication (additional colchicine and/or NSAIDs) ([2]; 400 mg daily, FIG. 4): 4.8% | Mean duration of Flares Requiring Treatment ([2]; 400 mg daily, FIG. 5): 2.0 days | Mean duration of Total flares ([2]; 400 mg daily, FIG. 5): 1.3 days | Mean sUA absolute change from baseline (Day 1) ([2]; 400 mg daily): -1.4 mg/dL | Mean sUA percent change from baseline (Day 1) ([2]; 400 mg daily): −15.4% | Flares considered moderate in severity by the investigator ([2]; 600 mg daily): 0 of 2 | Patients who reported flare during the Treatment Phase ([2]; 600 mg daily, FIG. 4): 4.3% | Patients with flare that required medication (additional colchicine and/or NSAIDs) ([2]; 600 mg daily, FIG. 4): 4.3% | Mean duration of Flares Requiring Treatment ([2]; 600 mg daily, FIG. 5): 1.0 days | Mean duration of Total flares ([2]; 600 mg daily, FIG. 5): 1.0 days | Mean sUA absolute change from baseline (Day 1) ([2]; 600 mg daily): -2.3 mg/dL | Mean sUA percent change from baseline (Day 1) ([2]; 600 mg daily): −23% | Incidence of any flares (Total flare) and flares requiring treatment compared to placebo ([2]; monotherapy, FIG. 4): dose dependently reduced the incidence of any flares (Total flare) and flares requiring treatment compared to placebo | Duration of all flares (any flares and flares requiring treatment) ([2]; monotherapy, FIG. 5): also reduced the duration of all flares | Uptake of uric acid into 3T3-L1 adipocytes (murine 3T3-L1 adipocytes): prevents the uptake of uric acid into 3T3-L1 adipocytes | Uric acid induced inflammatory response (expression and secretion of pro-inflammatory cytokines) (murine 3T3-L1 adipocytes): suppresses the uric acid induced inflammatory response

O=C(O)C(Oc1cccc(C(F)(F)F)c1)c1ccc(Cl)cc1 (single isomer, unassigned; (-)) [(−)-halofenic acid, (−)-4-chlorophenyl-(3-trifluoromethylphenoxy)acetic acid]
Half-life of (−)-halofenic acid in plasma ([3]; daily oral 400 mg arhalofenate for 30 days, FIGS. 1-2): a long half-life with sustained drug levels present for several days after the final dose | Intraday plasma concentration profile ([3]; daily oral 400 mg arhalofenate, Day 15 and Day 30, FIG. 2): a relatively constant intraday plasma concentration
